Assay results as given in patent US20090012183A1, “Composition comprising polyphenol” (Conopco, Inc. d/b/a Unilever, priority 2007, published 2009).

Assays:
[1] = tested on: rat aorta; conditions: cited from earlier work; for vasorelaxing effect: Chen and Pace Asciak, Gen. Pharmac. 27(2), 363-366 (1996)
[2] = tested on: 2nd order mesenteric artery side branches; experiment: Reactivity of isolated arteries: dilator effect during contraction induced by 40 mmol/L K+; design: species or system Spontaneously Hypertensive Rats (SHR)
Protocol: Segments of 2nd order mesenteric artery side branches were isolated from 14 weeks old male Spontaneously Hypertensive Rats (SHR). Two stainless-steel wires (diameter 40 μm) were inserted in the lumen of the arterial segments, which were then mounted in organ chambers between an isometric force transducer and a displacement device (Danish Myotechnology by J. P. Trading, Denmark). The organ chambers were filled with Krebs-Ringer bicarbonate solution which was maintained at 37° C. and continuously aerated with 95% O2 and 5% CO2. Before the actual experiments started, arterial segments were stretched to their individual optimal lumen diameter for mechanical performance, i.e. the diameter at which maximal contractile responses to noradrenaline ([…]) were obtained. In each experiment four second order mesenteric resistance arterial segments from one animal were mounted in individual organ chambers and studied in parallel. At the start of the experiments, all four arterial preparations were incubated during 20 min with capsaicin (1 μmol/L) to persistently desensitize sensory-motor nerves and to obtain a stable and considerable contractile response to potassium (K^+, 40 mmol/L). During all the experiments superoxide dismutase (SOD, 5 U/ml) was present, to preserve stability of the metabolites. We tested the effects of the 35 different phenolic compounds using a Plackett-Burman screening design. The experiment consisted of 5 separate saturated 8 run Plackett-burman designs. Each design contained a subset of 7 phenolic compounds (Factors): One of the compounds tested was trans-resveratrol (in this case compound 30). […] In this way, the effects of different exposure times to the mixtures (7, 30 and 90 min) on K+-induced contraction, could be evaluated. […] Effects of increasing concentrations of the solvent and of the mixes (0.1 to 100 umol/L) during contractile responses to 40 mmol/L K+, were calculated as % change of the level of pre-contraction. […]

With `O=c1c(O)c(-c2ccc(O)c(O)c2)oc2cc(O)cc(O)c12` [quercitin] as the compound, how does the vasorelaxing effect [1] read?
The vasorelaxing effect was “vasorelaxing effect”.

With `Oc1ccc(C=Cc2cc(O)cc(O)c2)cc1` [resveratrol] as the compound, how does the vasorelaxing effect [1] read?
Its vasorelaxing effect is “vasorelaxing effect”.

And the “relaxation of the rat aorta” value ([1]; Fitzpatrick et al, Am. J. physiol. 265, H774-H778, 1993)?
Its value is “did not relax”.

Which EC50 ([2]; Rattus norvegicus, isolated SHR mesenteric resistance arteries precontracted with 40 mmol/L K+, found by comparing mixtures (Plackett-Burman design), corrected for DMSO solvent, read-out: EC50 of dilation of the arteries) does the source give for `Oc1ccc(C=Cc2cc(O)cc(O)c2)cc1` [trans-resveratrol, 3,5,4′-trihydroxystilbene] here?
The EC50 was 11.6 µM.

What about the “influence on the dilation of the arteries” value ([2]; at a low concentration, comparison of different mixtures) of the same compound?
The value was “significant influence”.

What about the “concentration at which the maximum dilatation was obtained” value ([2]; isolated SHR mesenteric resistance arteries precontracted with 40 mmol/L K+, mixtures tested 0.1-100 umol/L) of the same compound?
Its value is 100 µM.
